Article PMC6403271, “Characterization, mechanism of action and optimization of activity of a novel peptide-peptoid hybrid against bacterial pathogens involved in canine skin infections” (Scientific Reports, 2019)
Read-outs that look alike come from different tables or passages of the source. Square brackets hold non-standard residues; d marks the D form. Peptide text beside a SMILES is read from it. 2Nal = N[C@@H](Cc1ccc2ccccc2c1)C(=O)O; d1Nal = N[C@H](Cc1cccc2ccccc12)C(=O)O; d2Nal = N[C@H](Cc1ccc2ccccc2c1)C(=O)O; Nle = CCCC[C@H](N)C(=O)O

How the values were obtained:
[1] = test system: MRSP C22963; assay type: cell-based, Staphylococcus pseudintermedius
Procedure: (§1) Activity of B1 was tested on 50P. aeruginosa isolates and 57S. pseudintermedius isolates (including 7 MRSP) that had been isolated in the diagnostic laboratory Sund Vet Diagnostik (University of Copenhagen) from various infections in dogs between 2009 and 2011. Representative MRSP (C22963), MSSA, and P. aeruginosa (26314) were used for testing the first set of B1 analogues.
(§2) MIC determination was performed by broth microdilution according to the Clinical and Laboratory Standard Institute (CLSI, M31-A3, 2008)[62]. In brief, each bacterial strain was diluted to concentration of 5 × 10^5 CFU/mL in Mueller Hinton broth II (MHB II) media (Oxoid) and added to a two-fold serial dilution of peptides and peptide-peptoid hybrids concentrations ranging from 1 to 64 µg/ml in 96-well plates (Nunc Internationals, Rochester, NY). The MICs were determined as a lowest concentration showing no visible growth after incubation for 18 hours at 37 °C. Experiments were performed in triplicates on two different days.

[2] = test system: MSSA (ATCC 29213); assay type: cell-based, Staphylococcus aureus
Procedure: as §1, §2

[3] = test system: P. aeruginosa (26314); assay type: cell-based, Pseudomonas aeruginosa
Procedure: Activity of B1 was tested on […]. aeruginosa isolates and […]. pseudintermedius isolates (including 7 MRSP) that had been isolated in the diagnostic laboratory Sund Vet Diagnostik (University of Copenhagen) from various infections in dogs between 2009 and 2011. Representative […], and P. aeruginosa (26314) were used for testing the first set of B1 analogues. For antibacterial spectrum the following strains were used: Corynebacterium auriscanis, 31551, (54 C6, dog, ear, 2013); Enterococcus faecalis, 27404, (17 C7, dog, wound, 2011); Enterococcus faecium, 30951, (24 C1, dog, ear, 2013); Streptococcus canis, 26740-1, (14 H1, dog, ear, 2010); Staphylococcus aureus, 27266, (16 G9, dog, skin, 2010); Staphylococcus aureus, 27266, (16 G9, dog, skin, 2010); Staphylococcus pseudintermedius 22963, (3 B9, dog, 2007). Acinetobacter baumannii, 27065, (16 D1, dog, wound, 2010); E. coli, 30235, 23 A6, dog, wound, 2012; Klebsiella pneumoniae, 26233, (11 H5, dog, wound, 2010); Pasteurella canis, 31096, (24 C8, dog, skin, 2013); Proteus mirabilis, 25178, (9 A4, dog, ear, 2009); Pseudomonas aeruginosa 26314, 12 C5, dog, urine, 2010). MIC determination was performed by broth microdilution according to the Clinical and Laboratory Standard Institute (CLSI, […]-A3, 2008)[62]. In brief, each bacterial strain was diluted to concentration of 5 × 10^5 CFU/mL in Mueller Hinton broth II (MHB II) media (Oxoid) and added to a two-fold serial dilution of peptides and peptide-peptoid hybrids concentrations ranging from 1 to 64 μg/ml in 96-well plates (Nunc Internationals, Rochester, NY). The MICs were determined as a lowest concentration showing no visible growth after incubation for 18 hours at 37 °C. Experiments were performed in triplicates on two different days.

[4] = assay type: cell-based, human; details: human
Procedure: (§3) Briefly, two-fold serial dilutions (2.35 to 150 μM) of compounds in phosphate buffer saline (PBS) were mixed with equal volume of 0.5% v/v suspension of fresh human red blood cells (RBC) in the same buffer. After 1 h incubation at 37 °C, plates were centrifuged and aliquots of the supernatants were transferred to clear 96-well plates. Absorbance at 414 nm was measured and normalized using a negative (PBS, 0%) and a positive (melittin, 100%) control. The EC10 and EC50 are concentrations at which 10% and 50% of RBC were lysed, respectively, as interpolated graphically by the y-axis intersection of the plotted data.

[5] = test system: human red blood cells; assay type: cell-based; details: for EC50: red cells of human, 1 h
Procedure: as §3

Row | Compound | Minimum Inhibitory Concentration MRSP C22963 ([1]; 18 h) | Minimum Inhibitory Concentration MSSA (ATCC 29213) ([2]; ATCC 29213, 18 h) | Minimum Inhibitory Concentration P. aeruginosa (26314) ([3]; 26314, 18 h) | hemolysis at 1 h, 150 µM [4] | Minimum Inhibitory Concentration P. aeruginosa (26314) ([3]; Table 1) | Haemolysis EC10 [5] | EC50 [5] | Minimum Inhibitory Concentration MRSP C22963 ([1]; Table 1) | Minimum Inhibitory Concentration MSSA (ATCC 29213) ([2]; Table 1) | Haemolysis %H 150(µM) ([5]; 150 µM)
1 | CC(C)C[C@@H](NC(=O)[C@H](CCCCN)NC(=O)[C@@H](Cc1ccc2ccccc2c1)NC(=O)[C@@H](Cc1ccccc1)NC(=O)[C@H](N)Cc1ccc2ccccc2c1)C(=O)N[C@@H](CCCCN)C(=O)N[C@@H](CCCCN)C(N)=O [Compound 18, (2-Nal)ala-phe-(2-Nal)ala-Lys-leu-Lys-Lys] (H-[d2Nal][dF][d2Nal]K[dL]KK-NH2; N-terminus assumed) | 16 µg/mL | 32 to 64 µg/mL | >64 µg/mL | < 8% |  |  |  |  |  | 
2 | CC(C)C[C@@H](NC(=O)[C@@H](Cc1ccc2ccccc2c1)NC(=O)[C@@H](Cc1ccccc1)NC(=O)[C@H](N)Cc1ccc2ccccc2c1)C(=O)N[C@@H](CCCCN)C(=O)N[C@@H](CCCCN)C(=O)N[C@@H](CCCCN)C(N)=O [Compound 19, (2-Nal)ala-phe-(2-Nal)ala-leu-Lys-Lys-Lys] (H-[d2Nal][dF][d2Nal][dL]KKK-NH2; N-terminus assumed) | 16 µg/mL | 32 µg/mL | >64 µg/mL | < 8% |  |  |  |  |  | 
3 | CC(C)C[C@@H](NC(=O)[C@H](CCCCN)NC(=O)[C@@H](Cc1cccc2ccccc12)NC(=O)[C@@H](Cc1ccccc1)NC(=O)[C@H](N)Cc1cccc2ccccc12)C(=O)N[C@@H](CCCCN)C(=O)N[C@@H](CCCCN)C(N)=O [Compound 20, (1-Nal)ala-phe-(1-Nal)ala-Lys-leu-Lys-Lys] (H-[d1Nal][dF][d1Nal]K[dL]KK-NH2; N-terminus assumed) | 16 µg/mL | 32 to 64 µg/mL | >64 µg/mL | < 8% |  |  |  |  |  | 
4 | CC(C)C[C@@H](NC(=O)[C@H](CCCCN)NC(=O)[C@H](CCCCN)NC(=O)[C@@H](N)CCCCN)C(=O)N[C@H](Cc1cccc2ccccc12)C(=O)N[C@H](Cc1ccc(O)cc1)C(=O)N[C@H](Cc1cccc2ccccc12)C(N)=O [Compound 25, Lys-Lys-Lys-leu-(1-Nal)ala-tyr-(1-Nal)ala] (H-KKK[dL][d1Nal][dY][d1Nal]-NH2; N-terminus assumed) | 2 to 4 µg/mL |  |  | 53% | 8 µg/mL | 38 µM | 138 µM |  |  | 
5 | CCCC[C@H](NC(=O)[C@H](CCCCN)NC(=O)[C@H](CCCCN)NC(=O)[C@@H](N)CCCCN)C(=O)N[C@@H](Cc1ccc2ccccc2c1)C(=O)N[C@@H](Cc1ccc(O)cc1)C(=O)N[C@@H](Cc1ccc2ccccc2c1)C(N)=O [Compound 27, Lys-Lys-Lys-Nle-(2-Nal)Ala-Tyr-(2-Nal)Ala] (H-KKK[Nle][2Nal]Y[2Nal]-NH2; N-terminus assumed) | 2 to 4 µg/mL |  | 64 µg/mL | 54% |  | 3 µM | 56 µM |  |  | 
6 | CC(C)C[C@@H](NC(=O)[C@H](CCCCN)NC(=O)[C@H](CCCCN)NC(=O)[C@@H](N)CCCCN)C(=O)N[C@H](Cc1ccc2ccccc2c1)C(=O)N[C@H](Cc1ccc(O)cc1)C(=O)N[C@H](Cc1ccc2ccccc2c1)C(N)=O [Compound 28, Lys-Lys-Lys-leu-(2-Nal)ala-tyr-(2-Nal)ala] (H-KKK[dL][d2Nal][dY][d2Nal]-NH2; N-terminus assumed) | 2 to 4 µg/mL |  | 32 µg/mL | 64% |  | 6 µM | 50 µM |  |  | 
7 | Lys-Lys-Lys-Leu-(2-Nal)Ala-Tyr-(2-Nal)Ala [Compound 22] |  |  |  |  | >64 µg/mL | 117 µM |  | 16 µg/mL | >64 µg/mL | 14%
